Results from the NIST ThermoML archive (doi:10.1021/je050092d).

Test: molar heat capacity at constant pressure
Details: 101.33 kPa, Vacuum adiabatic calorimetry

CCCCCCCCCCCCCCCCCC(=O)OCC(COC(=O)CCCCCCCCCCCCCCCCC)OC(=O)CCCCCCCCCCCCCCCCC [glycerol trioctadecanoate]
Details	molar heat capacity at constant pressure [J/K/mol]
9.6 K, Crystal	10.7
9.65 K, Crystal	8.023
9.71 K, Crystal	12.48
10.85 K, Crystal	22.29
11.58 K, Crystal	22.29
12.51 K, Crystal	26.74
13.59 K, Crystal	30.31
13.96 K, Crystal	32.98
15.41 K, Crystal	39.23
15.56 K, Crystal	43.68
17.3 K, Crystal	62.4
17.41 K, Crystal	50.81
19.33 K, Crystal	69.54
19.45 K, Crystal	65.97
21.54 K, Crystal	79.34
21.58 K, Crystal	82.02
23.71 K, Crystal	98.06
23.86 K, Crystal	100.74
25.95 K, Crystal	115
26.19 K, Crystal	116.78
28.25 K, Crystal	135.5
28.56 K, Crystal	137.29
30.62 K, Crystal	156.9
30.93 K, Crystal	149.77
30.99 K, Crystal	158.68
33.29 K, Crystal	184.54
35.42 K, Crystal	205.04
37.51 K, Crystal	215.74
39.73 K, Crystal	224.65
41.97 K, Crystal	239.81
44.25 K, Crystal	262.99
46.55 K, Crystal	273.68
48.96 K, Crystal	294.19
51.41 K, Crystal	312.02
53.88 K, Crystal	332.52
56.39 K, Crystal	354.81
58.93 K, Crystal	372.64
61.51 K, Crystal	394.03
64.13 K, Crystal	415.43
66.78 K, Crystal	434.15
69.45 K, Crystal	451.98
72.14 K, Crystal	468.03
74.85 K, Crystal	484.07
77.59 K, Crystal	501.01
80.34 K, Crystal	514.38
83.1 K, Crystal	530.43
85.71 K, Crystal	540.24
85.88 K, Crystal	545.59
88.61 K, Crystal	554.5
88.67 K, Crystal	558.07
91.44 K, Crystal	566.09
91.47 K, Crystal	572.33
94.27 K, Crystal	578.57
97.11 K, Crystal	585.7
99.95 K, Crystal	597.29
102.8 K, Crystal	610.66
105.65 K, Crystal	612.45
108.5 K, Crystal	616.01
111.36 K, Crystal	627.6
114.22 K, Crystal	640.08
117.09 K, Crystal	651.67
119.95 K, Crystal	661.48
122.82 K, Crystal	671.28
125.7 K, Crystal	680.2
128.58 K, Crystal	690.9
131.46 K, Crystal	729.23
134.35 K, Crystal	729.23
137.23 K, Crystal	716.75
140.13 K, Crystal	728.34
143.02 K, Crystal	739.93
145.92 K, Crystal	759.54
148.83 K, Crystal	769.35
151.73 K, Crystal	778.26
154.64 K, Crystal	790.74
157.55 K, Crystal	793.42
160.46 K, Crystal	818.38
163.37 K, Crystal	826.4
166.29 K, Crystal	837.99
169.2 K, Crystal	848.69
172.12 K, Crystal	856.71
175.04 K, Crystal	870.08
177.95 K, Crystal	878.11
178.91 K, Metastable crystal	900.39
180.87 K, Crystal	890.59
181.6 K, Metastable crystal	918.22
183.79 K, Crystal	901.29
184.26 K, Metastable crystal	942.29
186.7 K, Crystal	921.79
186.88 K, Metastable crystal	974.39
189.48 K, Metastable crystal	985.98
189.62 K, Crystal	938.73
192.06 K, Metastable crystal	995.78
192.54 K, Crystal	957.45
194.63 K, Metastable crystal	998.46
195.45 K, Crystal	972.6
197.18 K, Metastable crystal	1005.6
198.37 K, Crystal	976.17
199.71 K, Metastable crystal	1029.7
201.29 K, Crystal	997.57
202.23 K, Metastable crystal	1053.7
204.21 K, Crystal	1008.3
204.74 K, Metastable crystal	1074.2
207.13 K, Crystal	1014.5
207.23 K, Metastable crystal	1089.4
209.71 K, Metastable crystal	1083.1
210.05 K, Crystal	1023.4
212.17 K, Metastable crystal	1091.2
212.96 K, Crystal	1029.7
